According to article PMC7005646, “Overcoming resistance to anabolic SARM therapy in experimental cancer cachexia with an HDAC inhibitor” (EMBO Molecular Medicine, 2020):

Assays:
class I HDACs = test: In vitro HDAC inhibition assay, class I isoforms; format: biochemical, human; details: 1 μM AR‐42; range over isoforms
Method: HDAC activity was measured by a commercial vendor using human recombinant HDAC enzymes and fluorogenic HDAC substrates (Eurofins Cerep SA, Celle L'Evescault, France). Substrate concentrations ranged from 20 to 400 μM, and incubation conditions ranged from 10 to 90 min (RT or 37°C), depending on isoform. Results are expressed as percent inhibition of control specific activity in the presence of 1 μM AR‐42.

[1] = AR‐42 plasma and tissue pharmacokinetics, single oral dose, tumor‐free CD2F1 mice; format: in vivo, mouse; details: for Plasma exposure: mouse
Method: Pharmacokinetic studies were performed as previously described (Cheng et al, 2016) with the following modifications. Seven week‐old, male, tumor‐free CD2F1 mice (n = 3 per dose and time point) were administered single oral doses of 10, 20, and 50 mg/kg AR‐42 and then sacrificed 0.25, 4, and 24 h later. Fifty milligrams of gastrocnemius muscle tissue was flash‐frozen in 2 ml BeadBlaster™ 24 (MIDSCI; St. Louis, MO) tubes and stored at −80°C. Samples were homogenized for 6 cycles using a BeadBlaster 24 with analytical standards in 1 mL methanol and then centrifuged at 15,600 g (4°C) for 10 min. Supernatants were transferred to glass tubes, dried under nitrogen, and then reconstituted in 200 μl 40% methanol/0.1% formic acid. Plasma preparation and LC‐MS/MS analyses were performed as previously described (Sborov et al, 2017). Mouse plasma and muscle pharmacokinetic parameters were estimated as previously described with the exception of Cavg, which was calculated as AUCall/[dosing interval(h)].

C‐26 tumor‐bearing mice [2] = test: Initial AR‐42/GTx‐024 combination study (Study 1), male C‐26 tumor‐bearing mice; format: in vivo, mouse; details: Study 1, male, GTx‐024 15 mg/kg, AR‐42 10 mg/kg, or both
C‐26 tumor‐bearing mice [3] = test: Confirmatory AR‐42/GTx‐024 combination study (Study 2), male C‐26 tumor‐bearing mice; format: in vivo, mouse
Method: These studies were performed as previously described (Tseng et al, 2015a) with modifications. Tumors were established in the right flank of CD2F1 mice by subcutaneous injection of C‐26 cells (0.5 × 10^6 cells in 0.1 ml). […] TFM‐4AS‐1 (a potent experimental SARM), DHT, and vehicles were administered by subcutaneous injection.
(§1) This confirmatory study was performed exactly as Study 1 with expanded animal numbers. Tumor‐free control groups were maintained at 6 animals each, whereas 10 animals were included in each of the tumor‐bearing groups. […] Grip strength was measured on study days 0 (baseline) and 16. Due to rapid model progression, this study was terminated on day 17 after only 12 days of treatment.
Forelimb grip strength was measured using Bio‐GS3 Grip Strength Test Meter (Forceleader DBA Bioseb, Pinellas Park, FL). Each mouse was held by the base of its tail and lowered over the apparatus until its forepaws grasped the metal pull bar. The mouse was then gently pulled horizontally in a straight line away from the grip strength meter until the mouse released the bar. The force applied to the bar at the moment of release was recorded as the peak force. Five measurements were taken from each mouse, the average of which was designated as the mouse's grip strength.

serum cytokines = test: Serum cytokine panel (multiplex), terminal samples from Study 2; format: in vivo, mouse
Method: as §1
Serum cytokine panel analyses were performed by a commercial vendor (Eve Technologies, Calgary, Canada) as previously described (Tseng et al, 2015a). Serum interleukin‐6 (IL‐6) was measured using a commercial ELISA kit (R&D Systems, Minneapolis, MN, USA) according to the manufacturer's instructions.

pSTAT3 (Y705) = test: pSTAT3/tSTAT3 Western blot of gastrocnemius muscle; format: in vivo, mouse
Method: Western blots from all studies were performed on gastrocnemius muscle from representative animals lysed by Nonidet P‐40 isotonic lysis buffer [50 mM Tris–HCl, pH 7.5, 120 mM NaCl, 1% (v/v) Nonidet P‐40, 1 mM EDTA, 50 mM NaF, 40 mM glycerophosphate, and […] each of protease inhibitors (aprotinin, pepstatin, and leupeptin)]. Equivalent amounts of protein from each sample, as determined by the Bradford assay (Bio‐Rad), were resolved by SDS–PAGE and then transferred (semi‐dry) onto Immobilon nitrocellulose membranes (Millipore, Bellerica, MA). Membranes were washed twice with TBST [Tris‐buffered saline (TBS) containing 0.1% Tween‐20], blocked with 5% non‐fat milk in TBST for 1 h, and then washed an additional three times. Membranes were incubated with specific primary antibody in TBST (1:1,000) at 4°C overnight, washed three times (TBST), and then incubated with appropriate goat anti‐rabbit or anti‐mouse IgG–horseradish peroxidase‐conjugated secondary antibodies (1:5,000) at room temperature (1 h). Following additional washes (TBST), immunoblots were visualized as appropriate by ECL chemiluminescence (Amersham Biosciences, Little Chalfont, United Kingdom) or Duration HRP Chemiluminescence (Alkali Scientific, Florida, United States). Primary antibodies: phospho‐STAT3 (Tyr705) (D3A7) XP® rabbit mAb #9145, STAT3 (124H6) mouse mAb #9139 (Cell Signaling Technology, Danvers, MA); α‐tubulin (B‐7), sc‐5286 (Santa Cruz Biotechnologies, Santa Cruz, CA); androgen receptor (EP670Y), ab52615 (Abcam, Cambridge, MA) and GAPDH (6C5), sc‐32233 (Santa Cruz Biotechnologies, Santa Cruz, CA).

tumor‐free mice = test system: tumor‐free mice; design: method as in Tseng et al, 2015a; details: ref Tseng et al, 2015a, cited from earlier work
[4] = Study 2, AR‐42 10 mg/kg alone or with GTx‐024 15 mg/kg
[5] = C‐26 Tumor‐bearing, GTx‐024 15 mg/kg, AR‐42 10 mg/kg, or both, mean ± SD

CC(C)[C@H](C(=O)Nc1ccc(C(=O)NO)cc1)c1ccccc1 [AR‐42]
inhibition of class I HDACs (class I HDACs): 72–95%
AUCall ([1]; 10 mg/kg oral, Muscle): 11,076.7 nM*h
Cavg ([1]; 10 mg/kg oral, Muscle): 461.5 nM
Cmax ([1]; 10 mg/kg oral, Muscle): 1.11 µM
AUCall ([1]; 10 mg/kg oral, Plasma): 10,931.6 nM*h
Cmax ([1]; 10 mg/kg oral, Plasma): 1.5 µM
Cavg ([1]; 10 mg/kg oral, Plasma, AUCall/dosing interval): 455.5 nM
gastrocnemius muscle concentration ([1]; 10 mg/kg oral, remained above for 4 h): above 700 nM
AUCall ([1]; 20 mg/kg oral, Muscle): 36,504.2 nM*h
Cavg ([1]; 20 mg/kg oral, Muscle): 1,521.0 nM
Cmax ([1]; 20 mg/kg oral, Muscle): 3.66 µM
AUCall ([1]; 20 mg/kg oral, Plasma): 34,369.3 nM*h
Cavg ([1]; 20 mg/kg oral, Plasma): 1,432.1 nM
Cmax ([1]; 20 mg/kg oral, Plasma): 3.86 µM
AUCall ([1]; 50 mg/kg oral, Muscle): 72,624.7 nM*h
Cavg ([1]; 50 mg/kg oral, Muscle): 3,026.2 nM
Cmax ([1]; 50 mg/kg oral, Muscle): 6.37 µM
AUCall ([1]; 50 mg/kg oral, Plasma): 74,307.3 nM*h
Cavg ([1]; 50 mg/kg oral, Plasma): 3,096.1 nM
Cmax ([1]; 50 mg/kg oral, Plasma): 7.93 µM
mouse plasma exposure at 50 mg/kg over well‐tolerated human exposure ([1]; 74.3 vs 8.5 μM*h): 8.7 fold
Plasma exposure ([1]; single oral dose 10 mg/kg): 10.9 µM·h
Plasma exposure ([1]; single oral dose 50 mg/kg): 74.3 µM·h
terminal body weight corrected for tumor mass (C‐26 tumor‐bearing mice [2]; day 18, 13 days daily oral): 91.2 ± 3.7 % of tumor‐free controls
terminal gastrocnemius mass (C‐26 tumor‐bearing mice [2]; day 18): 94.3 ± 1.4 % of tumor‐free controls
terminal quadriceps mass (C‐26 tumor‐bearing mice [2]; day 18): 93.2 ± 6.3 % of tumor‐free controls
effect on adipose tissue (epididymal fat pad) (C‐26 tumor‐bearing mice [3]; Study 2, 10 mg/kg): no impact on adipose tissue
forelimb grip strength over vehicle‐treated tumor‐bearing controls (C‐26 tumor‐bearing mice [3]; [4]): improved grip strength
gastrocnemius and quadriceps mass relative to GTx‐024 monotherapy (C‐26 tumor‐bearing mice [3]; [4]): significantly improved gastrocnemius and quadriceps mass
GM‐CSF, serum (serum cytokines; [5]): 18.70 ± 3.77 pg/mL
G‐CSF, serum (serum cytokines; [5]): 2782.18 ± 2191.30 pg/mL
IL‐6, serum (serum cytokines; [5]): 256.59 ± 183.1 pg/mL
IL‐17, serum (serum cytokines; [5]): 1.82 ± 0.85 pg/mL
IP‐10, serum (serum cytokines; [5]): 215.35 ± 52.46 pg/mL
KC, serum (serum cytokines; [5]): 363.38 ± 200.65 pg/mL
LIF, serum (serum cytokines; [5]): 15.79 ± 5.15 pg/mL
LIX, serum (serum cytokines; [5]): 2515.38 ± 3119.67 pg/mL
M‐CSF, serum (serum cytokines; [5]): 20.21 ± 4.63 pg/mL
effect on circulating cytokine levels (serum cytokines; Study 2, 10 mg/kg monotherapy, tumor‐bearing): did not significantly reduce circulating levels of any evaluated cytokine
pSTAT3 in gastrocnemius (pSTAT3 (Y705); female C‐26 tumor‐bearing mice, Study 3): reduced levels of pSTAT3 activation
pSTAT3 in gastrocnemius (pSTAT3 (Y705); male C‐26 tumor‐bearing mice, Study 1): reduced pSTAT3 but not equally in all animals
maximally tolerated dose in mice (tumor‐free mice; oral gavage every other day): 50 mg/kg
effect on lower limb skeletal muscle masses relative to controls (tumor‐free mice; tumor‐free mice, 50 mg/kg every other day): no significant effects on lower limb skeletal muscle masses
reduction in epididymal adipose tissue masses (tumor‐free mice; tumor‐free mice, 50 mg/kg oral every other day): ~50%
